In patent US10189843B2, “Fused pyrazole derivative having autotaxin inhibitory activity” (The University of Tokyo, priority 2014, dated 2019):

Target: T1, Human autotaxin enzyme (Homo sapiens, UniProt Q13822)
T1 construct: purchased R&D System
Test: Evaluation of autotaxin inhibitor, Method C (18:0 Lyso PC substrate, choline assay, Resorufin fluorescence)
Format: biochemical
Details: Method C (Test Example 3), read-out: Inhibitory activity (enzyme inhibitory activity, IC50)
Summary of the method: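 Recombinant human autotaxin with compound and 200 μM 18:0 Lyso PC (stock) in Tris-HCl pH 7.5, NaCl, MgCl2, Triton X-100, 2 h RT. Released choline detected via choline oxidase/peroxidase/Amplex-type reagent, 20 min, resorufin fluorescence 531/598 nm; % inhibition vs no-compound and no-enzyme controls, concentration-response curve.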

| IC50 | Compound |
| --- | --- |
| < 10 nM | CC(=O)Nc1cc(C#N)ccc1-c1cc2n(n1)[C@@H](C)CN(Cc1ccc(C#N)cc1)C2=O [Compound I-0335] |
| 100 to 1000 nM | C[C@H]1CN(Cc2ccc(C#N)cc2)C(=O)c2cc(-c3ccc(Cl)cc3C#N)nn21 [Compound I-0298] |
| < 10 nM | O=C(O)c1cccc(CN2CC(COCC(F)(F)F)n3nc(-c4ccc(Cl)cc4)cc3C2=O)c1 (centres unmarked) [Compound I-0311] |
| 100 to 1000 nM | C[C@H]1CN(CC(=O)N(C)CCC#N)C(=O)c2cc(-c3ccc(C#N)cc3NC(=O)CO)nn21 [Compound I-0360] |
| ≥ 1000 nM | CCCCC1CN(c2ccc(CCC(=O)O)cc2)C(=O)c2cc(-c3ccc(Cl)cc3)nn21 (centres unmarked) [Compound I-0287] |
| 10 to 100 nM | C[C@H]1CN(CC(=O)N(C)CC#N)C(=O)c2cc(-c3ccc(Cl)cc3NC(=O)C3CC3)nn21 [Compound I-0365] |
| 10 to 100 nM | CC(=O)NC1=C(c2cc3n(n2)[C@@H](C)CN(Cc2ccc(C#N)cc2)C3=O)CCC(C(F)(F)F)C1 (some centres unmarked) [Compound I-0366] |
| < 10 nM | O=C(O)C1CCN(C(=O)CN2CC(COCC(F)(F)F)n3nc(-c4ccc(Cl)cc4)cc3C2=O)CC1 (centres unmarked) [Compound I-0318] |
| 100 to 1000 nM | N#Cc1ccc(CN2CC(CC(F)(F)F)n3nc(-c4c(C#N)cc(Cl)cc4CO)cc3C2=O)cc1 (centres unmarked) [Compound I-0371] |

The next lines start with the compound.

| Compound | IC50 |
| --- | --- |
| CCCCCC1CN(CC(=O)NCc2ccccc2)C(=O)c2cc(-c3ccc(Cl)cc3)nn21 (centres unmarked) [Compound I-0099] | 100 to 1000 nM |
| CCCCCC1CN(CC(=O)N2CCC[C@@H](C)C2)C(=O)c2cc(-c3ccc(Cl)cc3)nn21 (some centres unmarked) [Compound I-0071] | 100 to 1000 nM |
| CCCCC1CN(CC(=O)N(C)CCC#N)C(=O)c2cc(-c3ccc(Cl)cc3)nn21 (centres unmarked) [Compound I-0209] | 10 to 100 nM |
| C[C@H]1CN(Cc2ccc(C(N)=O)cc2)C(=O)c2cc(-c3ccc(Cl)cc3)nn21 [Compound I-0169] | ≥ 1000 nM |
| CCCCCC1CN(CC(=O)N2CCCC[C@@H]2C)C(=O)c2cc(-c3ccc(Cl)cc3)nn21 (some centres unmarked) [Compound I-0082] | 10 to 100 nM |
| N#Cc1ccc(CN2CC(COC(F)(F)C(F)F)n3nc(-c4ccc(Cl)cc4)cc3C2=O)cc1 (centres unmarked) [Compound I-0195] | 100 to 1000 nM |
| CCCCCC1CN(CC(=O)NCCCCCCC(=O)O)C(=O)c2cc(-c3ccc(Cl)cc3)nn21 (centres unmarked) [Compound I-0057] | 100 to 1000 nM |
| CCCCCC1CN(CC(=O)NC2CCC(C(=O)O)CC2)C(=O)c2cc(-c3ccc(Cl)cc3)nn21 (centres unmarked) [Compound I-0060] | 100 to 1000 nM |
| CCCCC1CN(CC(=O)NCC2(CO)COC2)C(=O)c2cc(-c3ccc(Cl)cc3)nn21 (centres unmarked) [Compound I-0237] | 100 to 1000 nM |
| CCCCCC1CN(CC(=O)N(C)CCN(C)C)C(=O)c2cc(-c3ccc(Cl)cc3)nn21 (centres unmarked) [Compound I-0102] | ≥ 1000 nM |
| CCCCC1CN(CC2CCCO2)C(=O)c2cc(-c3ccc(Cl)cc3)nn21 (centres unmarked) [Compound I-0268] | 10 to 100 nM |
| CCCCCC1CN(CC(=O)N2CCCC(C(N)=O)C2)C(=O)c2cc(-c3ccc(Cl)cc3)nn21 (centres unmarked) [Compound I-0095] | 10 to 100 nM |
| CCCCCC1CN(Cc2ccc(C(N)=O)cc2)C(=O)c2cc(-c3ccc(Cl)cc3)nn21 (centres unmarked) [Compound I-0147] | 100 to 1000 nM |
| CCCCC1CN(Cc2ccc(C#N)cc2)C(=O)c2cc(-c3ccc(Cl)cc3)nn21 (centres unmarked) [Compound I-0183] | 10 to 100 nM |
| CCCCCC1CN(CC(=O)N2CCNCC2)C(=O)c2cc(-c3ccc(Cl)cc3)nn21 (centres unmarked) [Compound I-0100] | 100 to 1000 nM |
| CCCCCC1CN(CC(=O)N2CCNC(=O)C2)C(=O)c2cc(-c3ccc(Cl)cc3)nn21 (centres unmarked) [Compound I-0037] | 10 to 100 nM |
| CCCCC1CN(CCOc2ccccc2)C(=O)c2cc(-c3ccc(Cl)cc3)nn21 (centres unmarked) [Compound I-0270] | 100 to 1000 nM |
| CCCCCC1CN(CC(=O)N2CCCC2CCCc2ccccc2)C(=O)c2cc(-c3ccc(Cl)cc3)nn21 (centres unmarked) [Compound I-0078] | ≥ 1000 nM |
| CCCCCC1CN(CC(=O)N2CCC(C(=O)O)CC2)C(=O)c2cc(-c3ccc(Cl)cc3)nn21 (centres unmarked) [Compound I-0007] | < 10 nM |
| CCOCC1CN(Cc2cccc(C(=O)O)c2)C(=O)c2cc(-c3ccc(Cl)cc3)nn21 (centres unmarked) [Compound I-0175] | 10 to 100 nM |
